Laboratory results: US20210238173A1, “MITOGEN-ACTIVATED PROTEIN KINASE KINASE 7 INHIBITORS” (Yeda Research and Development Co. Ltd., priority 2018, published 2021)

How the values were obtained:
[1] = test system: pP38 in HEK293 cells; test: pP38 response in HEK293 cells; format: cell-based; settings: at 10 μM
Procedure: To rapidly assess the cellular activity (EC50) with full dose response curves of the MKK7 covalent inhibitors, according to some embodiments of the present invention, an in-cell western assay was adapted to a 384 well plate format over traditional western blot, and monitored phospho-JNK (pJNK) levels in response to osmotic shock. We first characterized the dynamics of pJNK in response to sorbitol. Sufficient dynamic range for pJNK is achieved at 20 minutes in HEK293 cells and at 40 minutes in 3T3 and Beas2B cells. The compound's activity was assessed by pre-treating cells with either compound or DMSO for 2 hours, followed by Sorbitol stimulation. The response of pJNK, and its substrates, pc-Jun and pATF2, was measured, as well as pP38, which is a substrate of MKK4 but not MKK7, and pERK in HEK293 cells, and the results are presented in Table 5 below.
With similar values for pcJun (2.26 μM and 1.67 μM, respectively) and pATF2 (2.79 μM 5.19 μM, respectively).

[2] = molecular target: T1, catalytic domain of MKK7 (Homo sapiens, UniProt O14733); test: Activity based fluorescent labeling in bacterial lysate overexpressing MKK7; format: binding; settings: pre-incubated with the lysate
T1 construct: over-expressing MKK7 (103-426 residues); 6-His (C); made in house; host or cells: E. coli Rosetta2 BL21 (DE3), crude lysate

[3] = molecular target: AMPK A1/B1/G1 (Homo sapiens, UniProt Q13131); test: Kinome selectivity screen AMPK; format: biochemical; settings: 1 μM compound
Procedure: (§1) Kinome Selectivity Screen:
(§2) Kinase selectivity was assessed using the Life Technologies SelectScreen Kinase Profiling Service in a custom panel of 76 kinases selected to provide broad representative coverage of all kinase families. Kinase activity assays employed either the Z′-LYTE or Adapta assay technologies with ATP concentrations at or near the KM, ATP for each kinase and a test compound concentration of 1 μM.

[4] = molecular target: CDK1/cyclin B (Homo sapiens, UniProt P06493); test: Kinome selectivity screen CDK1/cyclin B; format: biochemical; settings: 1 μM compound
Procedure: as §1, §2

[5] = molecular target: DAPK3 (ZIPK) (Homo sapiens, UniProt O43293); test: Kinome selectivity screen DAPK3; format: biochemical; settings: 1 μM compound
Procedure: as §1, §2

[6] = molecular target: EGFR (ErbB1) (Homo sapiens, UniProt P00533); test: Kinome selectivity screen EGFR; format: biochemical; settings: 1 μM compound
Procedure: as §1, §2

[7] = molecular target: FGFR1 (Homo sapiens, UniProt P11362); test: Kinome selectivity screen FGFR1; format: biochemical; settings: 1 μM compound
Procedure: as §1, §2

[8] = molecular target: FLT3 (Homo sapiens, UniProt P36888); test: Kinome selectivity screen FLT3; format: biochemical; settings: 1 μM compound
Procedure: as §1, §2

[9] = molecular target: FLT4 (VEGFR3) (Homo sapiens, UniProt P35916); test: Kinome selectivity screen FLT4; format: biochemical; settings: 1 μM compound
Procedure: as §1, §2

[10] = molecular target: FRAP1 (mTOR) (Homo sapiens, UniProt P42345); test: Kinome selectivity screen FRAP1; format: biochemical; settings: 1 μM compound
Procedure: as §1, §2

[11] = molecular target: IGF1R (Homo sapiens, UniProt P08069); test: Kinome selectivity screen IGF1R; format: biochemical; settings: 1 μM compound
Procedure: as §1, §2

[12] = molecular target: INSR (Homo sapiens, UniProt P06213); test: Kinome selectivity screen INSR; format: biochemical; settings: 1 μM compound
Procedure: as §1, §2

[13] = molecular target: LRRK2 (Homo sapiens, UniProt Q5S007); test: Kinome selectivity screen LRRK2; format: biochemical; settings: 1 μM compound
Procedure: as §1, §2

[14] = molecular target: MAP2K1 (MEK1) (Homo sapiens, UniProt Q02750); test: Kinome selectivity screen MAP2K1; format: biochemical; settings: 1 μM compound
Procedure: as §1, §2

[15] = molecular target: MAP3K9 (MLK1) (Homo sapiens, UniProt P80192); test: Kinome selectivity screen MAP3K9; format: biochemical; settings: 1 μM compound
Procedure: as §1, §2

[16] = molecular target: MAP4K4 (HGK) (Homo sapiens, UniProt O95819); test: Kinome selectivity screen MAP4K4; format: biochemical; settings: 1 μM compound
Procedure: as §1, §2

[17] = molecular target: MAP4K5 (KHS1) (Homo sapiens, UniProt Q9Y4K4); test: Kinome selectivity screen MAP4K5; format: biochemical; settings: 1 μM compound
Procedure: as §1, §2

[18] = molecular target: MAPK1 (ERK2) (Homo sapiens, UniProt P28482); test: Kinome selectivity screen MAPK1; format: biochemical; settings: 1 μM compound
Procedure: as §1, §2

[19] = molecular target: MAPK8 (JNK1) (Homo sapiens, UniProt P45983); test: Kinome selectivity screen MAPK8; format: biochemical; settings: 1 μM compound
Procedure: as §1, §2

[20] = molecular target: MET (cMet) (Homo sapiens, UniProt P08581); test: Kinome selectivity screen MET; format: biochemical; settings: 1 μM compound
Procedure: as §1, §2

[21] = molecular target: NTRK1 (TRKA) (Homo sapiens, UniProt P04629); test: Kinome selectivity screen NTRK1; format: biochemical; settings: 1 μM compound
Procedure: as §1, §2

[22] = molecular target: PDK1 Direct (Homo sapiens, UniProt O15530); test: Kinome selectivity screen PDK1 Direct; format: biochemical; settings: 1 μM compound
Procedure: as §1, §2

[23] = molecular target: PIK3CA/PIK3R1 (p110 alpha/p85 alpha) (Homo sapiens, UniProt P42336); test: Kinome selectivity screen PIK3CA/PIK3R1; format: biochemical; settings: 1 μM compound
Procedure: as §1, §2

[24] = molecular target: PKN1 (PRK1) (Homo sapiens, UniProt Q16512); test: Kinome selectivity screen PKN1; format: biochemical; settings: 1 μM compound
Procedure: as §1, §2

[25] = molecular target: PRKCD (PKC delta) (Homo sapiens, UniProt Q05655); test: Kinome selectivity screen PRKCD; format: biochemical; settings: 1 μM compound
Procedure: as §1, §2

[26] = molecular target: PRKCE (PKC epsilon) (Homo sapiens, UniProt Q02156); test: Kinome selectivity screen PRKCE; format: biochemical; settings: 1 μM compound
Procedure: as §1, §2

[27] = molecular target: RET (Homo sapiens, UniProt P07949); test: Kinome selectivity screen RET; format: biochemical; settings: 1 μM compound
Procedure: as §1, §2

[28] = molecular target: SRC (Homo sapiens, UniProt P12931); test: Kinome selectivity screen SRC; format: biochemical; settings: 1 μM compound
Procedure: as §1, §2

[29] = test system: JNK activation; test: KTR reporter live cell imaging of JNK activation; format: cell-based; settings: Homo sapiens; HEK293 cells; read-out: EC50 of test and control compounds
From the text: As an orthogonal assay for the ICW we used a KTR reporter cell line for JNK activation via live cell imaging.

[30] = molecular target: AURKA (Aurora A) (Homo sapiens, UniProt O14965); test: Kinome selectivity screen AURKA; format: biochemical; settings: 1 μM compound

Sequence of RET (P07949 29-1114): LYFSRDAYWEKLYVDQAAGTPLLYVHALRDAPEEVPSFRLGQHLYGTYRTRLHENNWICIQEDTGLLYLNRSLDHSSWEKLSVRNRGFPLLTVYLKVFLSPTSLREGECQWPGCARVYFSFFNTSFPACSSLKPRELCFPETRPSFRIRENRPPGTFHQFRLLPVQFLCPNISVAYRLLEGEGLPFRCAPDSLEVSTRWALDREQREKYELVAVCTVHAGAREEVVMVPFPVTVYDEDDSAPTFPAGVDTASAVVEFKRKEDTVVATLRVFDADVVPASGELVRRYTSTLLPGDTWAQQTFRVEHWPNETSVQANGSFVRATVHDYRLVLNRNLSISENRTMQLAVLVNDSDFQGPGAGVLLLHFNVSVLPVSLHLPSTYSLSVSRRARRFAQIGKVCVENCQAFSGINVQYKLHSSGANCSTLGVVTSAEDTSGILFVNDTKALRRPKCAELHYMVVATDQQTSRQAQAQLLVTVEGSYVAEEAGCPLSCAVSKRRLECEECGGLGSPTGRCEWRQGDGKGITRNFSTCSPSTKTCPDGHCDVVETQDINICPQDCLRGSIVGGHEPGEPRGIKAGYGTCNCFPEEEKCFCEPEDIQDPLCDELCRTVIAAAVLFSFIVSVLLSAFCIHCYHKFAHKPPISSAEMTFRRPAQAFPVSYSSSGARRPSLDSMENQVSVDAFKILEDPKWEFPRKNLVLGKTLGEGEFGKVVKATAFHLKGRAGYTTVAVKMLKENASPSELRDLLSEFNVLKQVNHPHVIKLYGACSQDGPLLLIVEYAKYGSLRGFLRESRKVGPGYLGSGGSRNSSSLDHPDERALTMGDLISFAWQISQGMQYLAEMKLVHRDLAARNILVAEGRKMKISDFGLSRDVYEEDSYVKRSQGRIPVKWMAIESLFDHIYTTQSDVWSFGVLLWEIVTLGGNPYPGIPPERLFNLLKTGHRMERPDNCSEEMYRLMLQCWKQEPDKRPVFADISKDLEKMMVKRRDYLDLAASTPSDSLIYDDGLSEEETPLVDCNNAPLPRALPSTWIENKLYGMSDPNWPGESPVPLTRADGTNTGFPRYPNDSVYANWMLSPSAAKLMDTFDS
Sequence of MAP3K9 (MLK1) (P80192 whole entry): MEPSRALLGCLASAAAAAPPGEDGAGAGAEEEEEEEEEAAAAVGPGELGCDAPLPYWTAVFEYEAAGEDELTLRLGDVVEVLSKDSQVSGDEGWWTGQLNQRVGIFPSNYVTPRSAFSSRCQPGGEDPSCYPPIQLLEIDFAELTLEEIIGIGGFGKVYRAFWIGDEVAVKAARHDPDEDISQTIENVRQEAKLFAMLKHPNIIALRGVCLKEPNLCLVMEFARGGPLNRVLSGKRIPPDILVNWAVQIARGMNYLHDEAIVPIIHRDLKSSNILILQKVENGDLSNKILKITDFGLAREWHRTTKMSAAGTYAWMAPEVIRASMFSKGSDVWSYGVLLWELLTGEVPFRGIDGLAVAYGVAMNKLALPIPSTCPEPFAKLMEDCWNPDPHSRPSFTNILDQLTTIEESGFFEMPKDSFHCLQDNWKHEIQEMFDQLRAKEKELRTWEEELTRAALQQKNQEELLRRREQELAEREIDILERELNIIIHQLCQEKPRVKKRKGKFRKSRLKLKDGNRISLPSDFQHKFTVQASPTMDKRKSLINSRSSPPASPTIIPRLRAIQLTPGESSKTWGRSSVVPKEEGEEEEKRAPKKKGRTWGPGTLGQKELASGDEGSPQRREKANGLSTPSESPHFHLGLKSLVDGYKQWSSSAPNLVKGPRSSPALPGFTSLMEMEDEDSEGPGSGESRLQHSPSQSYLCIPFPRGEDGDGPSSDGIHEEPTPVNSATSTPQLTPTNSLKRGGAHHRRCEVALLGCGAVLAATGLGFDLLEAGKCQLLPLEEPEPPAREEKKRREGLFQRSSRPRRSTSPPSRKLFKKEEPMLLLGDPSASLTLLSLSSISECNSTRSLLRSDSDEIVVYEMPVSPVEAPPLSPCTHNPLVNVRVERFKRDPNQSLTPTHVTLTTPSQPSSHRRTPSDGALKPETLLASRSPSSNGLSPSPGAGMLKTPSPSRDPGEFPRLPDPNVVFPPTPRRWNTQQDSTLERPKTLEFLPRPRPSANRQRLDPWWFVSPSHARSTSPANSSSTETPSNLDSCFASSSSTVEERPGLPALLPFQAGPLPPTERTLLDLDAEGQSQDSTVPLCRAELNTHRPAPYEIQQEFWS
T1 sequence (O14733 87-410): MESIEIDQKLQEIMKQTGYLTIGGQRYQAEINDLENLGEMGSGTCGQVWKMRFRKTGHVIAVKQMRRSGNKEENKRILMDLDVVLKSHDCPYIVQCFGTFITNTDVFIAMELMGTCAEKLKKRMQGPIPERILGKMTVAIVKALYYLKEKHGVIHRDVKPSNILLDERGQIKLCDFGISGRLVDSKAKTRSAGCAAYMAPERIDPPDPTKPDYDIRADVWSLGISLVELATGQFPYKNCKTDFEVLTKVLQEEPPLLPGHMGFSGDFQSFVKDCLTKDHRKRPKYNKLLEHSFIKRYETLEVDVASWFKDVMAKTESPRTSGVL
Sequence of MAP4K5 (KHS1) (Q9Y4K4 whole entry): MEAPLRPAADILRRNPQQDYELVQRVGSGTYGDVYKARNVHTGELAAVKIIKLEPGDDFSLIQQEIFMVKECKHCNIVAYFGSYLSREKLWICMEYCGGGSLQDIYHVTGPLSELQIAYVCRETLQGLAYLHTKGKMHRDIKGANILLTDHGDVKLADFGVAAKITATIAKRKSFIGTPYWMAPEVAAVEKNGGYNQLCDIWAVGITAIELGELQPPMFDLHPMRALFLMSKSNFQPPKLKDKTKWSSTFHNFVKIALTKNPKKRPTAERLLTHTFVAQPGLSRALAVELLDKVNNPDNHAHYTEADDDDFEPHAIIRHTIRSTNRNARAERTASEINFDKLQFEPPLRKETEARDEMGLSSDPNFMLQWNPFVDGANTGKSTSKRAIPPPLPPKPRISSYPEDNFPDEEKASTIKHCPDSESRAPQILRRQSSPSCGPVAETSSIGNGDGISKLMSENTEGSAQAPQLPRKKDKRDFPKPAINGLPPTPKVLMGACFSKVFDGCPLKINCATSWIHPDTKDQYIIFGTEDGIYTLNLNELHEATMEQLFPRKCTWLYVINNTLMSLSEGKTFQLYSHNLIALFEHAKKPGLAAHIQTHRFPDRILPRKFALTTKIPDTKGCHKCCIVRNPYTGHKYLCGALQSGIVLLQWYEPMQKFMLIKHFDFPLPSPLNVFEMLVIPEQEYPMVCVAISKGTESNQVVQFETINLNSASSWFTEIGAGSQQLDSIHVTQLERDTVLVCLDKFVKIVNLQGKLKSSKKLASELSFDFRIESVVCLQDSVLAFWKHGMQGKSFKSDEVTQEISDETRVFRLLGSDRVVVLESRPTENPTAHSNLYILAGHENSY
Sequence of MET (cMet) (P08581 25-1390): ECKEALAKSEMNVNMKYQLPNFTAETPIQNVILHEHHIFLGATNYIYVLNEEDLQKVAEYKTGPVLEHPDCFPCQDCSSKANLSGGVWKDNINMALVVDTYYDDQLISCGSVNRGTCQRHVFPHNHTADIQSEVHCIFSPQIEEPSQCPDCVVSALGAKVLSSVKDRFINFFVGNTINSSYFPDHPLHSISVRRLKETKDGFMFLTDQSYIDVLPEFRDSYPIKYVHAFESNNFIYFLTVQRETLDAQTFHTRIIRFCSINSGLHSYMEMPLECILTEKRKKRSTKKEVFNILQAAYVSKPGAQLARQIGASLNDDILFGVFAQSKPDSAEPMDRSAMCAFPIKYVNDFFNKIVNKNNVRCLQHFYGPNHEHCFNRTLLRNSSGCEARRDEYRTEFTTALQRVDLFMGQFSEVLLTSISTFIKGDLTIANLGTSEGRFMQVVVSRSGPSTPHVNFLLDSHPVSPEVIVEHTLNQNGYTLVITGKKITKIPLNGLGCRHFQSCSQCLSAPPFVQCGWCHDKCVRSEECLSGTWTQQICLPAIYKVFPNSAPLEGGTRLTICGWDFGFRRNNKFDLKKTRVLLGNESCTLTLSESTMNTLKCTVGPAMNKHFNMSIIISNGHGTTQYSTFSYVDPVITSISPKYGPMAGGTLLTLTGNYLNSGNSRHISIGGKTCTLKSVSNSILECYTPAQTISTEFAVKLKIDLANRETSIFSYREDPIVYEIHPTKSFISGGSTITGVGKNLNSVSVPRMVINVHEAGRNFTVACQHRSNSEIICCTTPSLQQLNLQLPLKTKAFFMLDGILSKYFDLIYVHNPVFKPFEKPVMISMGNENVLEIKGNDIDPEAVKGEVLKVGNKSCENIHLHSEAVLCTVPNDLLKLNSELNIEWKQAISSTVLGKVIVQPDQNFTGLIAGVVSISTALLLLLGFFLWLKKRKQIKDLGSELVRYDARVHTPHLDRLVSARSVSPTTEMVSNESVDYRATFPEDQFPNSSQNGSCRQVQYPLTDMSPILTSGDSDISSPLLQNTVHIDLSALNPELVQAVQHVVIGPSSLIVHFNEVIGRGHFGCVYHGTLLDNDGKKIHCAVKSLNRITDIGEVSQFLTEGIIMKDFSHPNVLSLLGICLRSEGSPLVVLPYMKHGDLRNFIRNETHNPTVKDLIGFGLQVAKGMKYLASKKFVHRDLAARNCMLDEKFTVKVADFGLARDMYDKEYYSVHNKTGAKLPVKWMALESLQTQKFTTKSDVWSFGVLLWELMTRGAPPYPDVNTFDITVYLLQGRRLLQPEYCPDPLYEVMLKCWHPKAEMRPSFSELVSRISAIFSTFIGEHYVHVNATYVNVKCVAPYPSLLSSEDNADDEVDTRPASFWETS
Sequence of MAPK1 (ERK2) (P28482 whole entry): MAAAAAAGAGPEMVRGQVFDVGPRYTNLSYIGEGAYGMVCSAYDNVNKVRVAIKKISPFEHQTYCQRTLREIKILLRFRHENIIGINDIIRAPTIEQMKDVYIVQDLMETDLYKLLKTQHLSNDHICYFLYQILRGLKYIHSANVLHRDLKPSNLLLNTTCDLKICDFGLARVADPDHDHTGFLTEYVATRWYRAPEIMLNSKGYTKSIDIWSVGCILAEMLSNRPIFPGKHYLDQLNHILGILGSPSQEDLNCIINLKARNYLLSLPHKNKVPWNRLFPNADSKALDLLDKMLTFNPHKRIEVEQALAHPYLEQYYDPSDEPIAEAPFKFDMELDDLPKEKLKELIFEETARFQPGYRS

Compound | effect on pP38 levels [1] | competition of PCM548 binding [2] | inhibition at 1 µM [3] [%] | inhibition at 1 µM [4] [%] | inhibition at 1 µM [5] [%] | inhibition at 1 µM [6] [%] | inhibition at 1 µM [7] [%] | inhibition at 1 µM [8] [%] | inhibition at 1 µM [9] [%] | inhibition at 1 µM [10] [%] | inhibition at 1 µM [11] [%] | inhibition at 1 µM [12] [%] | inhibition at 1 µM [13] [%] | inhibition at 1 µM [14] [%] | inhibition at 1 µM [15] [%] | inhibition at 1 µM [16] [%] | inhibition at 1 µM [17] [%] | inhibition at 1 µM [18] [%] | inhibition at 1 µM [19] [%] | inhibition at 1 µM [20] [%] | other results
C=CC(=O)Nc1cccc(-c2n[nH]c3ccccc23)c1 [GO32] | no effect | able to compete PCM548 binding | -5 | 19 | -3 | -6 | 2 | 55 | -2 | -2 | 6 | -10 | 95 | 4 | 37 | 58 | 22 | -3 | 15 | 9 | inhibition at 1 µM [21]: 22%; inhibition at 1 µM [22]: 22%; inhibition at 1 µM [23]: -6%; inhibition at 1 µM [24]: 4%; inhibition at 1 µM [25]: 9%; inhibition at 1 µM [26]: 20%; inhibition at 1 µM [27]: 6%; inhibition at 1 µM [28]: 10%
C=CC(=O)Nc1cccc(-c2n[nH]c3cc(C)ccc23)c1 [GO80] | did not affect | able to compete PCM548 binding | -5 | 22 | -2 | -4 | -2 | 79 | 0 | -2 | 7 | -7 | 94 | 4 | 8 | 42 | -11 | 3 | 16 | 13 | EC50 [29]: 3.3 µM; inhibition at 1 µM [30]: 4%; inhibition at 1 µM [21]: 44%; inhibition at 1 µM [22]: 26%; inhibition at 1 µM [23]: -19%; inhibition at 1 µM [24]: 1%; inhibition at 1 µM [25]: 7%; inhibition at 1 µM [26]: 21%; inhibition at 1 µM [27]: 5%; inhibition at 1 µM [28]: -4%
